pIC50: −log10 of the molar value.
The compounds below were run against USP1 (construct USP1 (I-785, GG670, 671AA)/UAF1 (I-677)-Flag) (Homo sapiens (Human), UniProt O94782, G670A/G671A) (assay: Ubiquitin-Rhodamine 110 assay for USP1 activity). Settings: USP1/UAF1 25 pM, Ub-Rh110 25 nM, 30 min preincubation.
Format: biochemical
Summary of the method: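 Ub-Rh110 (25 nM, ≪Km) cleavage read at ex 485/em 535 in Tris pH 8.0, CaCl2, GSH, Prionex, Triton X-100. The screen used 10 µM compound, 100 pM USP1/UAF1 and 45 min at RT.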

Sequence of USP1 (construct USP1 (I-785, GG670, 671AA)/UAF1 (I-677)-Flag) (O94782 whole entry G670A/G671A): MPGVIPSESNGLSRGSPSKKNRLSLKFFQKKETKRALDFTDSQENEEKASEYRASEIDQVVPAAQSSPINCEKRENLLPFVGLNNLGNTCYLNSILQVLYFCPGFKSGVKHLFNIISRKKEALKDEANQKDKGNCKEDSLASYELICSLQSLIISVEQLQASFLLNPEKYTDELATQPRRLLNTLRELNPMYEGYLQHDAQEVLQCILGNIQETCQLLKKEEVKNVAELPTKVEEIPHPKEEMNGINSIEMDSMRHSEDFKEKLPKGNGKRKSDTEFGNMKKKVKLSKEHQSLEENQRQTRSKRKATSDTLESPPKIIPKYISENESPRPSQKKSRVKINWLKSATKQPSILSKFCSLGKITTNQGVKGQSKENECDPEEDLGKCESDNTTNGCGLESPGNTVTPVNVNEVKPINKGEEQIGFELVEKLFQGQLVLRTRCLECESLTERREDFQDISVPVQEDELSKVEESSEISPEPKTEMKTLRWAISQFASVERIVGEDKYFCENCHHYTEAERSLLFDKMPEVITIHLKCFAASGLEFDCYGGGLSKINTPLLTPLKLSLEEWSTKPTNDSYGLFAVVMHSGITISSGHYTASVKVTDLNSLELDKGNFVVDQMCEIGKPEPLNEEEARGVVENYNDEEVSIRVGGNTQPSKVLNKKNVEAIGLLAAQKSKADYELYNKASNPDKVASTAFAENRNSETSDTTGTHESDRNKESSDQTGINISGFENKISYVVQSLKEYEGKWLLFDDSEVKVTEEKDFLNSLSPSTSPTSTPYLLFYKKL
Sequence of USP1 (construct USP1 (I-785, GG670, 671AA)/UAF1 (I-677)-Flag) (Q8TAF3 whole entry partner): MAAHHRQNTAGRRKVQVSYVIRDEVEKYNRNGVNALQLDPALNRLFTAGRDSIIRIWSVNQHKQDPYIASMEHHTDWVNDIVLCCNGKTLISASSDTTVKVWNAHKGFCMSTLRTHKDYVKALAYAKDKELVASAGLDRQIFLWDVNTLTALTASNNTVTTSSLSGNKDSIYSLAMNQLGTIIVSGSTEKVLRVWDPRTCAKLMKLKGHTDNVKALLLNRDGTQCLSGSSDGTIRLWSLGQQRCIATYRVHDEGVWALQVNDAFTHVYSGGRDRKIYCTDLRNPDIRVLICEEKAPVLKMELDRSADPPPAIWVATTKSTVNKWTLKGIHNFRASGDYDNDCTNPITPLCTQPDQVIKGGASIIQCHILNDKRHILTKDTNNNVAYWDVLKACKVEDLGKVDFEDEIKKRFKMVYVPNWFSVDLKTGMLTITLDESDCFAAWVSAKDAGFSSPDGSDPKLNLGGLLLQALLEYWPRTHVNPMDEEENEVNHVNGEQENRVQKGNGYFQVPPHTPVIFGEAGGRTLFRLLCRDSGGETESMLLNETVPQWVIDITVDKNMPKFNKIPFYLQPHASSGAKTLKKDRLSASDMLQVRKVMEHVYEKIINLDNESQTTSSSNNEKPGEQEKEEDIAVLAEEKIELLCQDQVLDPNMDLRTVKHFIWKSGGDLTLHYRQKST

Q: CC(C)c1ccccc1-c1ncc2[nH]c(=O)n(Cc3ccc(C(=O)NC4(c5ccccc5)CCCC4)cc3)c2n1 [Compound I-359, 4-((2-(2-isopropylphenyl)-8-oxo-7,8-dihydro-9H-purin-9-yl)methyl)-N-(1-phenylcyclopentyl)benzamide] was tested. Which pIC50 did it give?
A: Its pIC50 is 6.70 to 7.30.

Q: CC(C)c1ccccc1-c1ncc2[nH]c(=O)n(Cc3ccc(C(=O)NCc4nccn4C)cc3)c2n1 [Compound I-360, 4-((2-(2-isopropylphenyl)-8-oxo-7,8-dihydro-9H-purin-9-yl)methyl)-N-((1-methyl-1H-imidazol-2-yl)methyl)benzamide] was tested. Which pIC50 did it give?
A: The pIC50 was 5.70 to 6.70.

Q: With CC(C)c1ccccc1-c1ncc2[nH]c(=O)n(Cc3ccc(C(=O)NCc4cnn(C)c4)cc3)c2n1 [Compound I-361, 4-((2-(2-isopropylphenyl)-8-oxo-7,8-dihydro-9H-purin-9-yl)methyl)-N-((1-methyl-1H-pyrazol-4-yl)methyl)benzamide] as the compound, how does the pIC50 read?
A: The pIC50 was 5.70 to 6.70.

Q: CCN(CC)C(=O)c1ccc(Cn2c(=O)[nH]c3cnc(-c4ccccc4C(C)C)nc32)cc1 [Compound I-362, N,N-diethyl-4-((2-(2-isopropylphenyl)-8-oxo-7,8-dihydro-9H-purin-9-yl)methyl)benzamide] was tested. Which pIC50 did it give?
A: The pIC50 was over 7.30.

Q: CC(C)c1ccccc1-c1ncc2[nH]c(=O)n(Cc3ccc(C(=O)N4CCOCC4)cc3)c2n1 [Compound I-363, 2-(2-isopropylphenyl)-9-(4-(morpholine-4-carbonyl)benzyl)-7,9-dihydro-8H-purin-8-one] was tested. Which pIC50 did it give?
A: Its pIC50 is 6.70 to 7.30.

Q: With CC(C)c1ccccc1-c1ncc2[nH]c(=O)n(Cc3ccc(C(=O)N(C)C4CCCCC4)cc3)c2n1 [Compound I-364, N-cyclohexyl-4-((2-(2-isopropylphenyl)-8-oxo-7,8-dihydro-9H-purin-9-yl)methyl)-N-methylbenzamide] as the compound, how does the pIC50 read?
A: The pIC50 was over 7.30.

Q: How did the pIC50 turn out when CC(C)c1ccccc1-c1ncc2[nH]c(=O)n(Cc3ccc(C(=O)N(C)Cc4ccc(F)cc4)cc3)c2n1 [Compound I-365, N-(4-fluorobenzyl)-4-((2-(2-isopropylphenyl)-8-oxo-7,8-dihydro-9H-purin-9-yl)methyl)-N-methylbenzamide] was run?
A: Its pIC50 is 6.70 to 7.30.

Q: CC1CCN(C(=O)c2ccc(Cn3c(=O)[nH]c4cnc(-c5ccccc5C(C)C)nc43)cc2)CC1 [Compound I-366, 2-(2-isopropylphenyl)-9-(4-(4-methylpiperidine-1-carbonyl)benzyl)-7,9-dihydro-8H-purin-8-one] was tested. Which pIC50 did it give?
A: Its pIC50 is 6.70 to 7.30.

Q: CC(C)c1ccccc1-c1ncc2[nH]c(=O)n(Cc3ccc(C(=O)N(C)C4CCOCC4)cc3)c2n1 [Compound I-367, 4-((2-(2-isopropylphenyl)-8-oxo-7,8-dihydro-9H-purin-9-yl)methyl)-N-methyl-N-(tetrahydro-2H-pyran-4-yl)benzamide] was tested. Which pIC50 did it give?
A: The pIC50 was 6.70 to 7.30.

Q: How did the pIC50 turn out when COCC1CCCN(C(=O)c2ccc(Cn3c(=O)[nH]c4cnc(-c5ccccc5C(C)C)nc43)cc2)C1 (stereo not drawn) [Compound I-368, 2-(2-isopropylphenyl)-9-(4-(3-(methoxymethyl)piperidine-1-carbonyl)benzyl)-7,9-dihydro-8H-purin-8-one] was run?
A: Its pIC50 is 6.70 to 7.30.

Q: CC(C)c1ccccc1-c1ncc2[nH]c(=O)n(Cc3ccc(C(=O)N4CCC[C@H]4C)cc3)c2n1 [Compound I-369, (R)-2-(2-isopropylphenyl)-9-(4-(2-methylpyrrolidine-1-carbonyl)benzyl)-7,9-dihydro-8H-purin-8-one] was tested. Which pIC50 did it give?
A: The pIC50 was over 7.30.

Q: With COCCN(C(=O)c1ccc(Cn2c(=O)[nH]c3cnc(-c4ccccc4C(C)C)nc32)cc1)C(C)C [Compound I-370, N-isopropyl-4-((2-(2-isopropylphenyl)-8-oxo-7,8-dihydro-9H-purin-9-yl)methyl)-N-(2-methoxyethyl)benzamide] as the compound, how does the pIC50 read?
A: Its pIC50 is 6.70 to 7.30.

Q: How did the pIC50 turn out when Cc1nc(CN(C)C(=O)c2ccc(Cn3c(=O)[nH]c4cnc(-c5ccccc5C(C)C)nc43)cc2)cs1 [Compound I-371, 4-((2-(2-isopropylphenyl)-8-oxo-7,8-dihydro-9H-purin-9-yl)methyl)-N-methyl-N-((2-methylthiazol-4-yl)methyl)benzamide] was run?
A: The pIC50 was 6.70 to 7.30.

Q: With CC(C)c1ccccc1-c1ncc2[nH]c(=O)n(Cc3ccc(C(=O)Nc4nccn4C)cc3)c2n1 [Compound I-372, 4-((2-(2-isopropylphenyl)-8-oxo-7,8-dihydro-9H-purin-9-yl)methyl)-N-(1-methyl-1H-imidazol-2-yl)benzamide] as the compound, how does the pIC50 read?
A: Its pIC50 is 6.70 to 7.30.

Q: How did the pIC50 turn out when CCN(C)C(=O)c1ccc(Cn2c(=O)[nH]c3cnc(-c4ccccc4C(C)C)nc32)cc1 [Compound I-373, N-ethyl-4-((2-(2-isopropylphenyl)-8-oxo-7,8-dihydro-9H-purin-9-yl)methyl)-N-methylbenzamide] was run?
A: Its pIC50 is over 7.30.

Q: How did the pIC50 turn out when CCCN(C)C(=O)c1ccc(Cn2c(=O)[nH]c3cnc(-c4ccccc4C(C)C)nc32)cc1 [Compound I-374, 4-((2-(2-isopropylphenyl)-8-oxo-7,8-dihydro-9H-purin-9-yl)methyl)-N-methyl-N-propylbenzamide] was run?
A: Its pIC50 is over 7.30.

Q: How did the pIC50 turn out when CC(C)c1ccccc1-c1ncc2[nH]c(=O)n(Cc3ccc(C(=O)N(C)C(C)C)cc3)c2n1 [Compound I-375, N-isopropyl-4-((2-(2-isopropylphenyl)-8-oxo-7,8-dihydro-9H-purin-9-yl)methyl)-N-methylbenzamide] was run?
A: Its pIC50 is over 7.30.

Q: How did the pIC50 turn out when CC(C)c1ccccc1-c1ncc2[nH]c(=O)n(Cc3ccc(C(=O)N(C)CCO)cc3)c2n1 [Compound I-376, N-(2-hydroxyethyl)-4-((2-(2-isopropylphenyl)-8-oxo-7,8-dihydro-9H-purin-9-yl)methyl)-N-methylbenzamide] was run?
A: Its pIC50 is 5.70 to 6.70.

Q: How did the pIC50 turn out when CC(C)c1ccccc1-c1ncc2[nH]c(=O)n(Cc3ccc(C(=O)N4CC(O)C4)cc3)c2n1 [Compound I-377, 9-(4-(3-hydroxyazetidine-1-carbonyl)benzyl)-2-(2-isopropylphenyl)-7,9-dihydro-8H-purin-8-one] was run?
A: Its pIC50 is under 5.70.

Q: How did the pIC50 turn out when CC(C)c1ccccc1-c1ncc2[nH]c(=O)n(Cc3ccc(C(=O)N4CC[C@H](O)C4)cc3)c2n1 [Compound I-378, (S)-9-(4-(3-hydroxypyrrolidine-1-carbonyl)benzyl)-2-(2-isopropylphenyl)-7,9-dihydro-8H-purin-8-one] was run?
A: The pIC50 was 5.70 to 6.70.

Q: How did the pIC50 turn out when CC(C)c1ccccc1-c1ncc2[nH]c(=O)n(Cc3ccc(C(=O)N(C)C4CC4)cc3)c2n1 [Compound I-379, N-cyclopropyl-4-((2-(2-isopropylphenyl)-8-oxo-7,8-dihydro-9H-purin-9-yl)methyl)-N-methylbenzamide] was run?
A: The pIC50 was over 7.30.

Q: With CC(C)c1ccccc1-c1ncc2[nH]c(=O)n(Cc3ccc(C(=O)N(C)CC(=O)N(C)C)cc3)c2n1 [Compound I-380, N-(2-(dimethylamino)-2-oxoethyl)-4-((2-(2-isopropylphenyl)-8-oxo-7,8-dihydro-9H-purin-9-yl)methyl)-N-methylbenzamide] as the compound, how does the pIC50 read?
A: The pIC50 was 6.70 to 7.30.

Q: With CC(C)c1ccccc1-c1ncc2[nH]c(=O)n(Cc3ccc(C(=O)NC4COC4)cc3)c2n1 [Compound I-381, 4-((2-(2-isopropylphenyl)-8-oxo-7,8-dihydro-9H-purin-9-yl)methyl)-N-(oxetan-3-yl)benzamide] as the compound, how does the pIC50 read?
A: Its pIC50 is 5.70 to 6.70.

Q: With CC(C)c1ccccc1-c1ncc2[nH]c(=O)n(Cc3ccc(C(=O)N4CCC[C@H]4CO)cc3)c2n1 [Compound I-382, (S)-9-(4-(2-(hydroxymethyl)pyrrolidine-1-carbonyl)benzyl)-2-(2-isopropylphenyl)-7,9-dihydro-8H-purin-8-one] as the compound, how does the pIC50 read?
A: Its pIC50 is 5.70 to 6.70.

Q: How did the pIC50 turn out when CC(=O)N1CCN(C(=O)c2ccc(Cn3c(=O)[nH]c4cnc(-c5ccccc5C(C)C)nc43)cc2)CC1 [Compound I-383, 9-(4-(4-acetylpiperazine-1-carbonyl)benzyl)-2-(2-isopropylphenyl)-7,9-dihydro-8H-purin-8-one] was run?
A: Its pIC50 is 5.70 to 6.70.

Q: How did the pIC50 turn out when COCCO[C@H]1CCN(C(=O)c2ccc(Cn3c(=O)[nH]c4cnc(-c5ccccc5C(C)C)nc43)cc2)C1 [Compound I-384, (S)-2-(2-isopropylphenyl)-9-(4-(3-(2-methoxyethoxy)pyrrolidine-1-carbonyl)benzyl)-7,9-dihydro-8H-purin-8-one] was run?
A: The pIC50 was 5.70 to 6.70.

Q: How did the pIC50 turn out when CC(C)c1ccccc1-c1ncc2[nH]c(=O)n(Cc3ccc(C(=O)N4C[C@@H](C)O[C@@H](C)C4)cc3)c2n1 [Compound I-385, 9-(4-((2R,6S)-2,6-dimethylmorpholine-4-carbonyl)benzyl)-2-(2-isopropylphenyl)-7,9-dihydro-8H-purin-8-one] was run?
A: The pIC50 was 6.70 to 7.30.

Q: CC(C)c1ccccc1-c1ncc2[nH]c(=O)n(Cc3ccc(C(=O)N4CC(F)C4)cc3)c2n1 [Compound I-386, 9-(4-(3-fluoroazetidine-1-carbonyl)benzyl)-2-(2-isopropylphenyl)-7,9-dihydro-8H-purin-8-one] was tested. Which pIC50 did it give?
A: Its pIC50 is 6.70 to 7.30.

Q: With CC(C)c1ccccc1-c1ncc2[nH]c(=O)n(Cc3ccc(C(=O)N[C@@H]4CCC[C@@H]4O)cc3)c2n1 [Compound I-387, N-((1R,2S)-2-hydroxycyclopentyl)-4-((2-(2-isopropylphenyl)-8-oxo-7,8-dihydro-9H-purin-9-yl)methyl)benzamide] as the compound, how does the pIC50 read?
A: The pIC50 was 6.70 to 7.30.

Q: With CC(C)c1ccccc1-c1ncc2[nH]c(=O)n(Cc3ccc(C(=O)N4CCC(F)(F)CC4)cc3)c2n1 [Compound I-388, 9-(4-(4,4-difluoropiperidine-1-carbonyl)benzyl)-2-(2-isopropylphenyl)-7,9-dihydro-8H-purin-8-one] as the compound, how does the pIC50 read?
A: The pIC50 was 5.70 to 6.70.

Q: How did the pIC50 turn out when CC(C)c1ccccc1-c1ncc2[nH]c(=O)n(Cc3ccc(C(=O)N4CCCC4)cc3)c2n1 [Compound I-389, 2-(2-isopropylphenyl)-9-(4-(pyrrolidine-1-carbonyl)benzyl)-7,9-dihydro-8H-purin-8-one] was run?
A: The pIC50 was over 7.30.

Q: How did the pIC50 turn out when CC(C)c1ccccc1-c1ncc2[nH]c(=O)n(Cc3ccc(C(=O)N4CCCC4C)cc3)c2n1 (stereo not drawn) [Compound I-390, 2-(2-isopropylphenyl)-9-(4-(2-methylpyrrolidine-1-carbonyl)benzyl)-7,9-dihydro-8H-purin-8-one] was run?
A: Its pIC50 is over 7.30.

Q: COCC1(N(C)C(=O)c2ccc(Cn3c(=O)[nH]c4cnc(-c5ccccc5C(C)C)nc43)cc2)CC1 [Compound I-391, 4-((2-(2-isopropylphenyl)-8-oxo-7,8-dihydro-9H-purin-9-yl)methyl)-N-(1-(methoxymethyl)cyclopropyl)-N-methylbenzamide] was tested. Which pIC50 did it give?
A: The pIC50 was over 7.30.

Reference: US10189841B2, “Purinones as ubiquitin-specific protease 1 inhibitors” (Forma Therapeutics, Inc., priority 2015, dated 2019)
